Measured values: patent US10662195B2, “Protein kinase conjugates and inhibitors” (Celgene Avilomics Research, Inc., priority 2009, dated 2020)
Read-outs that look alike come from different tables or passages of the source.

Tests used:
[1] = target: KDR (Homo sapiens, UniProt P35968); assay: KDR Omnia continuous-read kinase assay; assay type: biochemical; parameters: purchased Invitrogen or BPS Bioscience PV3660 or 40301
Procedure: (§1) A. KDR and FLT-3 Omnia Assay for Potency Assessment:
(§2) The protocol below describes a continuous-read kinase assay to measure inherent potency of Avila Therapeutics' compounds against active KDR and FLT-3 enzymes. The assay was performed substantially as described by the vendor (Invitrogen, Carlsbad, Calif.; http://www.invitrogen.com/content.cfm?pageid=11338.)
Briefly, 10× stocks of KDR from Invitrogen or BPS Bioscience (PV3660 or 40301) and FLT-3 (PV3182) enzymes, 1.13×ATP (AS001A) and Y9-Sox or Y12-Sox peptide substrates (KCZ1001) were prepared in 1× kinase reaction buffer consisting of 20 mM Tris, pH 7.5, 5 mM MgCl2, 1 mM EGTA, 5 mM β-glycerophosphate, 5% glycerol (10× stock, KB002A) and 0.2 mM DTT (DS001A). 5 μL of enzyme were pre-incubated in a Corning (#3574) 384-well, white, non-binding surface microtiter plate (Corning, N.Y.) for 30 min at 27° C. with a 0.5 μL volume of 50% DMSO and serially diluted compounds prepared in 50% DMSO. Kinase reactions were started with the addition of 45 μL of the ATP/Y9 or Y5-Sox peptide substrate mix and monitored every 30-90 seconds for 60 minutes at λex360/λem485 in a Synergy^4 plate reader from BioTek (Winooski, Vt.). At the conclusion of each assay, progress curves from each well were examined for linear reaction kinetics and fit statistics (R^2, 95% confidence interval, absolute sum of squares). Initial velocity (0 minutes to 20+ minutes) from each reaction was determined from the slope of a plot of relative fluorescence units vs time (minutes) and then plotted against inhibitor concentration to estimate IC50 from Log [Inhibitor] vs Response, Variable Slope model in GraphPad Prism from GraphPad Software (San Diego, Calif.). […]
(§3) The reported IC50_APP and IC50 values are in units of nM.

[2] = target: CKIT D816V (Homo sapiens, UniProt P10721, D816V); assay: c-Kit mutant Omnia kinase assay; assay type: biochemical; settings: read-out: IC50_APP CKIT D816V
CKIT D816V, sequence (P10721 26-976 D816V): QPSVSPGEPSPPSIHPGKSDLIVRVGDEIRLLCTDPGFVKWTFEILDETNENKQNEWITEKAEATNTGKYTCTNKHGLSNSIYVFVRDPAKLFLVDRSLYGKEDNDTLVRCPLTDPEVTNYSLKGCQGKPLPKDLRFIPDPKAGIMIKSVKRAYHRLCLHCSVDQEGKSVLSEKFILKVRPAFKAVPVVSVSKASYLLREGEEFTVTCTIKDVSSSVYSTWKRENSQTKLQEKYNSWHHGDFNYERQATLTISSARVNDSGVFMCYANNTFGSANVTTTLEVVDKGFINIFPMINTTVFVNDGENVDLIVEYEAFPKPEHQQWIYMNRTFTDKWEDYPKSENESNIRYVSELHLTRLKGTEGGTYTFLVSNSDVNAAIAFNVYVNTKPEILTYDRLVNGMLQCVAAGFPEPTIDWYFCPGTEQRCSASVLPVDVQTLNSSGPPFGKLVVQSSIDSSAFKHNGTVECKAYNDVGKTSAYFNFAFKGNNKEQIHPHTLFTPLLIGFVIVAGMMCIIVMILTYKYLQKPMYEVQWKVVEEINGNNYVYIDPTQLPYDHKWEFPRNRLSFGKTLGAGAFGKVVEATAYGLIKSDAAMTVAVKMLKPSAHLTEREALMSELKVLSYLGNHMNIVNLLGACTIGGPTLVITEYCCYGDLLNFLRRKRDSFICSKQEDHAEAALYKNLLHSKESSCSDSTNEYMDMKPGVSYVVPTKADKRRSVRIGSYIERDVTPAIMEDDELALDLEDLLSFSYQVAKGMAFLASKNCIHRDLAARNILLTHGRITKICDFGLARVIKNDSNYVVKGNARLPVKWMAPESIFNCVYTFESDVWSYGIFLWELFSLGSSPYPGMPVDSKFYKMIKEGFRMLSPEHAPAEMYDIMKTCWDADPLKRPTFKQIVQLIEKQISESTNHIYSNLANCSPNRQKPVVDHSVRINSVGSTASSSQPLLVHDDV

[3] = test system: CKIT; assay: cKIT washout assay in GIST882 cells (C-kit phosphorylation, western blot); assay type: cell-based; settings: 1 uM for 90 minutes, then washed free of compound
Procedure: GIST882 cells (See, Bauer et al., Cancer Research, 66(18):9153-9161 (2006)) were seeded in a 6 well plate at a density of 8×10^5 cells/well in complete media. The next day cells were treated with 1 uM compound diluted in complete media for 90 minutes. After 90 minutes, the media was removed and cells were washed with compound-free media. Cells were washed every 2 hours and resuspended in fresh compound-free media. Cells were collected at specified time points, lysed in Cell Extraction Buffer (Invitrogen FNN0011) supplemented with Roche complete protease inhibitor tablets (Roche 11697498001) and phosphatase inhibitors (Roche 04 906 837 001) and lysates were sheared by passing through a 28.5 gauge syringe 10 times each. Protein concentrations were measured and 10 ug total protein lysate was loaded in each lane. C-kit phosphorylation was assayed by western blot with pTyr (4G10) antibody and total kit antibody from Cell Signaling Technology.
Sorafenib and XVIII-11 were tested for cellular activity in a GIST882 cell line at 1 micromolar. The results are depicted in FIGS. 2a and 2b where it is shown that XVIII-11 maintained c-KIT enzyme inhibition in […] cells after “washout” for at least 8 hours. […] In order to understand whether there was a prolonged inhibition with the irreversible inhibitor the cells were washed free of compound. For the reversible inhibitor, Sorafenib, the inhibitory activity of cKIT and downstream signaling was overcome whereas the irreversible inhibition of XVIII-11 persisted for at least 8 hours.

[4] = target: T1, FLT3 (Homo sapiens, UniProt P36888); assay: FLT-3 Omnia continuous-read kinase assay; assay type: biochemical
T1 construct: purchased PV3182
T1 sequence (P36888 27-993): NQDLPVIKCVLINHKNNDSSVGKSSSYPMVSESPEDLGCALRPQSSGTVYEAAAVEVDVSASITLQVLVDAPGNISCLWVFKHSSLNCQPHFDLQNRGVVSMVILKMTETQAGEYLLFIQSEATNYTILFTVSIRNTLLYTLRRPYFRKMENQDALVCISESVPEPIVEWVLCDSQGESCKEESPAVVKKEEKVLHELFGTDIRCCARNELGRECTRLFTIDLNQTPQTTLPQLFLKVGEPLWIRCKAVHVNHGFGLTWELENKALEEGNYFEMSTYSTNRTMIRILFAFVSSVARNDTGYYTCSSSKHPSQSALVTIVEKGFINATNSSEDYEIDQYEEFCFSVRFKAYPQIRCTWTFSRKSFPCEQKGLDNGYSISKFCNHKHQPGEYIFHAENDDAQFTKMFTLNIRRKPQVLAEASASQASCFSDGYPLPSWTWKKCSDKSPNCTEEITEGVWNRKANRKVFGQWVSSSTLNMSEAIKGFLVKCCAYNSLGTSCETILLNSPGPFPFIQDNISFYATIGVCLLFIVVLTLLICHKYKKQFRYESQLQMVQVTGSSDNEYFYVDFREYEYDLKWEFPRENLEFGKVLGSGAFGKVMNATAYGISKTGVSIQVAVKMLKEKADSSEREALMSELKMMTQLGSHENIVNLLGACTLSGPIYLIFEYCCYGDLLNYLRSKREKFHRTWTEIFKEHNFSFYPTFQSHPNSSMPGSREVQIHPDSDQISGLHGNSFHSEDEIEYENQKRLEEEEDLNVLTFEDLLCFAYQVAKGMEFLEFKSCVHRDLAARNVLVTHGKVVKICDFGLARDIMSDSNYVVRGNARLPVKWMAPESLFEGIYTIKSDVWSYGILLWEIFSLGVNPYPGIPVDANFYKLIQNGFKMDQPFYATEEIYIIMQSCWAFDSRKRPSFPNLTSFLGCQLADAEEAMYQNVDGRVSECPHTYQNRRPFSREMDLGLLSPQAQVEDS
Procedure: as §1, §2
Briefly, 10× stocks of KDR from Invitrogen or BPS Bioscience (PV3660 or 40301) and FLT-3 (PV3182) enzymes, 1.13×ATP (AS001A) and Y9-Sox or Y12-Sox peptide substrates (KCZ1001) were prepared in 1× kinase reaction buffer consisting of 20 mM Tris, pH 7.5, 5 mM MgCl2, 1 mM EGTA, 5 mM β-glycerophosphate, 5% glycerol (10× stock, KB002A) and 0.2 mM DTT (DS001A). 5 μL of enzyme were pre-incubated in a Corning (#3574) 384-well, white, non-binding surface microtiter plate (Corning, N.Y.) for 30 min at 27° C. with a 0.5 μL volume of 50% DMSO and serially diluted compounds prepared in 50% DMSO. Kinase reactions were started with the addition of 45 μL of the ATP/Y9 or Y5-Sox peptide substrate mix and monitored every 30-90 seconds for 60 minutes at λex360/λem485 in a Synergy^4 plate reader from BioTek (Winooski, Vt.). At the conclusion of each assay, progress curves from each well were examined for linear reaction kinetics and fit statistics (R^2, 95% confidence interval, absolute sum of squares). Initial velocity (0 minutes to 20+ minutes) from each reaction was determined from the slope of a plot of relative fluorescence units vs time (minutes) and then plotted against inhibitor concentration to estimate IC50 from Log [Inhibitor] vs Response, Variable Slope model in GraphPad Prism from GraphPad Software (San Diego, Calif.).
[FLT-3]=15 nM, [ATP]=500 μM and [Y5-Sox peptide]=10 μM (ATP KMapp=470 μM)
as §3

[5] = target: T2, PDGFRA (Homo sapiens, UniProt P16234); assay: Assay for PDGFRa (Omnia); assay type: biochemical
T2 construct: purchased PV3811
T2 sequence (P16234 24-1089): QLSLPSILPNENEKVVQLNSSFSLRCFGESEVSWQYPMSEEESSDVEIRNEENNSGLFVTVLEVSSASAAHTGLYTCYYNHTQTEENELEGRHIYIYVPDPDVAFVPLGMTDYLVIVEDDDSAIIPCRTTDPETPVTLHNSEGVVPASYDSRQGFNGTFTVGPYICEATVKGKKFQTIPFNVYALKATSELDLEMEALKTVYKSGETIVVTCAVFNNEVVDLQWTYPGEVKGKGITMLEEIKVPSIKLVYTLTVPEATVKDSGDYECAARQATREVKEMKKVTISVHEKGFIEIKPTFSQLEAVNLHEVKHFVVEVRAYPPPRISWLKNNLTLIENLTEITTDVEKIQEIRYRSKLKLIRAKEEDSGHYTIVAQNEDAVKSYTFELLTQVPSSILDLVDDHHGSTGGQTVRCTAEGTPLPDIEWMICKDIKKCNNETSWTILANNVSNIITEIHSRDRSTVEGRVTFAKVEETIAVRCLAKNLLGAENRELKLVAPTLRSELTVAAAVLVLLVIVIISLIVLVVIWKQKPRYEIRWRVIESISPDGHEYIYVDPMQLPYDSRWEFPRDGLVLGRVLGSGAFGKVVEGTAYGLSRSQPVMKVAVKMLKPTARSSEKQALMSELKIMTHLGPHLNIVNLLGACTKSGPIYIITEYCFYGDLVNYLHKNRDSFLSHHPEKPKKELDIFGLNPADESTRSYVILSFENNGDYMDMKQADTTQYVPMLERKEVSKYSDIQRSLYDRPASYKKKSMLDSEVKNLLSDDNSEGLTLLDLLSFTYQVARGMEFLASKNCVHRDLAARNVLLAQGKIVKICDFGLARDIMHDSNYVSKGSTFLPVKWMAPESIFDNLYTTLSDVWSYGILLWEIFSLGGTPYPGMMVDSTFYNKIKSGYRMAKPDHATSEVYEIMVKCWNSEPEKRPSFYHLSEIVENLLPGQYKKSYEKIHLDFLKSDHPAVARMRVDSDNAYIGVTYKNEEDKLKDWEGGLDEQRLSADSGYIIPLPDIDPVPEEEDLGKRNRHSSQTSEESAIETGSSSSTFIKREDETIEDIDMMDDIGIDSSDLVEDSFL
Procedure: Briefly, 10× stock of PDGFRα (PV3811) enzyme, 1.13×ATP (AS001A) and Y12-Sox peptide substrates (KCZ1001) was prepared in 1× kinase reaction buffer consisting of 20 mM Tris, pH 7.5, 5 mM MgCl2, 1 mM EGTA, 5 mM β-glycerophosphate, 5% glycerol (10× stock, KB002A) and 0.2 mM DTT (DS001A). 5 μL of enzyme were pre-incubated in a Corning (#3574) 384-well, white, non-binding surface microtiter plate (Corning, N.Y.) for 30 min at 27° C. with a 0.5 μL volume of 50% DMSO and serially diluted compounds prepared in 50% DMSO. Kinase reactions were started with the addition of 45 μL of the ATP/Y9 or Y12-Sox peptide substrate mix and monitored every […] for 60 minutes at λex360/λem485 in a Synergy^4 plate reader from BioTek (Winooski, Vt.). At the conclusion of each assay, progress curves from each well were examined for linear reaction kinetics and fit statistics (R2, 95% confidence interval, absolute sum of squares). Initial velocity (0 minutes to 20+ minutes) from each reaction was determined from the slope of a plot of relative fluorescence units vs time (minutes) and then plotted against inhibitor concentration to estimate IC50 from log [Inhibitor] vs Response, Variable Slope model in GraphPad Prism from GraphPad Software (San Diego, Calif.).
[PDGFRα]=2-5 nM, [ATP]=60 μM and [Y9-Sox peptide]=10 μM (ATP KMapp=61 μM)
as §3

[6] = target: CKIT (Homo sapiens, UniProt P10721); assay: c-Kit Omnia kinase assay; assay type: biochemical; settings: reversible reference compounds; read-out: IC50 CKIT
CKIT (Homo sapiens, UniProt P10721), sequence (P10721 26-976): as the sequence (P10721 26-976 D816V) above, with V791D counted along it

[7] = 30 min pre-incubation, read-out: IC50_APP KDR
[8] = 30 min pre-incubation, [ATP]=500 μM, read-out: IC50_APP FLT3
[9] = 30 min pre-incubation, [ATP]=60 μM, read-out: IC50_APP PDGFRA

KDR, sequence (P35968 20-1356): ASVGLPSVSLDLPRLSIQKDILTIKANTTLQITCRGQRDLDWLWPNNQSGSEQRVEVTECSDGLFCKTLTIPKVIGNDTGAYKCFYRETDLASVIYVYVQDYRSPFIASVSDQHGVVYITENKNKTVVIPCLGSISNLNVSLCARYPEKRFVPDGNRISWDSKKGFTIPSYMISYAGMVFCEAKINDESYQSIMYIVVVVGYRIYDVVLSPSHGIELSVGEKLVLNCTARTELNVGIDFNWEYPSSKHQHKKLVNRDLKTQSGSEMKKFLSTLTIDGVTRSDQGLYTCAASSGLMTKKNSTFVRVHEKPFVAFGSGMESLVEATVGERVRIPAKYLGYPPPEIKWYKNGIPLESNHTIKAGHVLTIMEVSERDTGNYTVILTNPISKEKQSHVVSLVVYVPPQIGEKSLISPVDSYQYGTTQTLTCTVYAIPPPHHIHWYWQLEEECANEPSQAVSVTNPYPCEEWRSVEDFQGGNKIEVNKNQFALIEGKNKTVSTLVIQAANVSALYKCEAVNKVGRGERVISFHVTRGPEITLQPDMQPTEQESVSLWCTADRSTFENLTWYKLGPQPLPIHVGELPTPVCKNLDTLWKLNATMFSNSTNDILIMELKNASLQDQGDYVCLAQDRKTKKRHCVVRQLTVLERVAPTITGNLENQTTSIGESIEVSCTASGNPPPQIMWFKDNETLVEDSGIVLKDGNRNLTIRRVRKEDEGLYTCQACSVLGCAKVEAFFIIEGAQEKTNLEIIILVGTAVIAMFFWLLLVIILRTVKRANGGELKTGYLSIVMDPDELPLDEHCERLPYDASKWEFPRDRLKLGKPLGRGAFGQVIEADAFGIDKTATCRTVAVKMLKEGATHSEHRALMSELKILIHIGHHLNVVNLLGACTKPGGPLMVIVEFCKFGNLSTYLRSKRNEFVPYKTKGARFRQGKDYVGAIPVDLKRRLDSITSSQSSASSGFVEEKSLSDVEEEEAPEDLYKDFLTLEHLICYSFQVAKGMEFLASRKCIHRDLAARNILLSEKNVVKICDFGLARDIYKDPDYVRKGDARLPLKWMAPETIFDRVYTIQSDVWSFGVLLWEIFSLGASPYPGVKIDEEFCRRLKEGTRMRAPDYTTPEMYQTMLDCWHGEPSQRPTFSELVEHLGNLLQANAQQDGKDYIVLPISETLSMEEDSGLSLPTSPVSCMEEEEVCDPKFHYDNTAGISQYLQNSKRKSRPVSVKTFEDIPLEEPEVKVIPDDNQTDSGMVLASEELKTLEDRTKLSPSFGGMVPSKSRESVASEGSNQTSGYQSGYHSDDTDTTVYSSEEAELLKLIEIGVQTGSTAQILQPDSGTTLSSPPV

| IC50 [1, 7] [nM] | IC50 [4, 8] [nM] | IC50 [5, 9] [nM] | IC50 ([1]; reversible reference compounds, read-out: IC50 KDR) [nM] | IC50 [6] [nM] | IC50 ([5]; reversible reference compounds, read-out: IC50 PDGFRA) [nM] | IC50 ([4]; reversible reference compounds, read-out: IC50 FLT3) [nM] | SMILES | IC50 [2] [nM] | duration of c-KIT inhibition after washout [3] |
| --- | --- | --- | --- | --- | --- | --- | --- | --- | --- |
| 6.94 | 107 | 1.54 |  |  |  |  | CNC(=O)c1cc(Oc2ccc(NC(=O)Nc3ccc(NC(=O)C(C)Cl)c(C(F)(F)F)c3)cc2)ccn1 (centres unmarked) [XVIII-14, 4-(4-(3-(4-(2-Chloropropionamido)-3-(trifluoromethyl)phenyl)ureido)phenoxy)-N-methylpicolinamide] |  |  |
| 0.95 | 0.508 | 0.508 |  |  |  |  | CNC(=O)c1cc(Oc2ccc(NC(=O)Nc3ccc(NC(=O)CCl)c(C(F)(F)F)c3)cc2)ccn1 [XVIII-13, 4-(4-(3-(4-(2-Chloroacetamido)-3-(trifluoromethyl)phenyl)ureido)phenoxy)-N-methylpicolinamide] |  |  |
|  |  |  | 39.4 | 16.3 | 4.15 | 0.461 | CCC(=O)Nc1ccc(NC(=O)Nc2ccc(Oc3ccnc(C(=O)NC)c3)cc2)cc1C(F)(F)F [Reversible Reference Compound 3, 4-(4-(3-(4-(Propionamido)-3-(trifluoromethyl)phenyl)ureido)phenoxy)-N-methylpicolinamide, reference compound] |  |  |

| SMILES | IC50 [1, 7] [nM] | IC50 [4, 8] [nM] | IC50 [5, 9] [nM] | IC50 ([1]; reversible reference compounds, read-out: IC50 KDR) [nM] | IC50 [6] [nM] | IC50 ([5]; reversible reference compounds, read-out: IC50 PDGFRA) [nM] | IC50 ([4]; reversible reference compounds, read-out: IC50 FLT3) [nM] | IC50 [2] [nM] | duration of c-KIT inhibition after washout [3] |
| --- | --- | --- | --- | --- | --- | --- | --- | --- | --- |
| C=CC(=O)Nc1ccc(NC(=O)Nc2ccc(Oc3ccnc(C(=O)NC)c3)cc2)cc1C(F)(F)F [XVIII-11, 4-(4-(3-(4-Acrylamido-3-(trifluoromethyl)phenyl)ureido)phenoxy)-N-methylpicolinamide] | 26.9 | 1.99 |  |  |  |  |  | 3.42 | at least 8 hours |
